For this series the following is noted: Crystal; visual observation.

Numbers after ± are expanded uncertainties.

For `CC1=CC(=O)[N-]S(=O)(=O)O1.[K+]` [acesulfame potassium], the Normal melting temperature is 229.00 ± 1 °C.

Source of the values: the NIST ThermoML archive (doi:10.1021/je700713q).
